Data reported in PMC5201331, “Subchronic Toxicities of HZ1006, a Hydroxamate-Based Histone Deacetylase Inhibitor, in Beagle Dogs and Sprague-Dawley Rats” (International Journal of Environmental Research and Public …, 2016).

Test system: Beagle dogs
Experiment: Subchronic toxicity test in Beagle dogs: serum biochemistry
Format: in vivo
Experimental: HZ1006 was administered orally to dogs (four/sex/group) at doses of 80, 40, 20, 5 and 0 (control) mg/kg/day, and the dosage volume was 2 mL/kg. The dogs received test doses with the exact amounts on a weekly basis based on current body weights. […] The other dogs in the above groups were dissected on the planned days. For the other groups, half of the dogs were anatomized on d28 and the remaining half on d42.
The following indexes were examined for the dogs used in the study, twice during the pre-dosage period and on d14, d28 and d42. The following parameters were evaluated on d28 and d42 for the rats in the study:
The animal blood samples were collected in the tubes containing the coagulator and centrifuged at 500 g for 10 min; the supernatant was then collected into a new tube. The serum biochemistry indexes included the following: alanine aminotransferase (ALT), alkaline phosphatase (ALP), aspartate aminotransferase (AST), blood urea (BU), lactate dehydrogenase (LDH), total bilirubin (TBIL), creatinine (Crea), albumin (ALB), total protein (TP), triglycerides (TG), total cholesterol (TCH), γ-glutamyltranspeptidase (g-GT), glucose (GLU), creatine phosphokinase (CPK), uric acid (UA), phosphorus (P), and calcium (Ca^2+). The above parameters were analyzed using an Automatic Analyzer 7080 provided by Hitachi High-Technologies Corp. (Tokyo, Japan). An Na/K/Cl Analyzer EasyLyte PLUS from Medica Corp. (Bedford, MA, USA), was used to determine the levels of chloride (Cl^−), sodium (Na^+) and potassium (K^+) in the blood samples.

[1] = dog ♀6 (80 mg/kg/day oral), d0 (pre-dose)
[2] = dog ♀6 (80 mg/kg/day oral), d14 line (moribund, euthanized d8)
[3] = dog ♀28 (40 mg/kg/day oral), d0 (pre-dose)
[4] = dog ♀28 (40 mg/kg/day oral), d14 (died d16)
[5] = dogs, 5 mg/kg/day oral, d0 (pre-dose)
[6] = dogs, 5 mg/kg/day oral, d42 (recovery)
[7] = dogs, 20 mg/kg/day oral, d0 (pre-dose)

## CCCCCCCNc1cc(/C=C/C(=O)NO)ccc1OCCN(CC)CC [HZ1006]
[1]
  ALP: Alkaline phosphatase: 1.50 µmol/s/L
  ALT: Alanine aminotransferase: 487 nmol/s/L
  AST: Aspartate aminotransferase: 456 nmol/s/L
  BU: Blood urea: 4.04 mmol/L
  CPK: Creatine phosphokinase: 3.06 µmol/s/L
  CREA: Creatinine: 52.8 µmol/L
  LDH: Lactate dehydrogenase: 2.78 µmol/s/L
  TBIL: Total bilirubin: 2.95 µmol/L
  TCH: Total cholesterol: 3.27 mmol/L
[2]
  ALP: Alkaline phosphatase: 3.86 µmol/s/L
  ALT: Alanine aminotransferase: 466 nmol/s/L
  AST: Aspartate aminotransferase: 1907 nmol/s/L
  BU: Blood urea: 15.20 mmol/L
  CPK: Creatine phosphokinase: 57.57 µmol/s/L
  CREA: Creatinine: 82.4 µmol/L
  LDH: Lactate dehydrogenase: 2.91 µmol/s/L
  TBIL: Total bilirubin: 11.53 µmol/L
  TCH: Total cholesterol: 11.04 mmol/L
Dog ♀6 (80 mg/kg/day oral), printed in d0 line
  TG: Triglycerides: 1.60 mmol/L
Dog ♀6 (80 mg/kg/day oral), printed in d42 line
  TCH: Total cholesterol: 0.31 mmol/L
[3]
  ALP: Alkaline phosphatase: 1.33 µmol/s/L
  ALT: Alanine aminotransferase: 428 nmol/s/L
  AST: Aspartate aminotransferase: 398 nmol/s/L
  BU: Blood urea: 4.08 mmol/L
  CPK: Creatine phosphokinase: 2.47 µmol/s/L
  CREA: Creatinine: 47.9 µmol/L
  LDH: Lactate dehydrogenase: 2.21 µmol/s/L
  TBIL: Total bilirubin: 2.18 µmol/L
  TCH: Total cholesterol: 5.85 mmol/L
[4]
  ALP: Alkaline phosphatase: 3.16 µmol/s/L
  ALT: Alanine aminotransferase: 852 nmol/s/L
  AST: Aspartate aminotransferase: 4924 nmol/s/L
  BU: Blood urea: 4.89 mmol/L
  CPK: Creatine phosphokinase: 6.39 µmol/s/L
  CREA: Creatinine: 37.8 µmol/L
  LDH: Lactate dehydrogenase: 2.06 µmol/s/L
  TBIL: Total bilirubin: 9.65 µmol/L
  TCH: Total cholesterol: 10.73 mmol/L
[5]
  ALP: Alkaline phosphatase: 1.47 ± 0.30 µmol/s/L
  ALT: Alanine aminotransferase: 559 ± 120 nmol/s/L
  AST: Aspartate aminotransferase: 463 ± 106 nmol/s/L
  BU: Blood urea: 4.03 ± 0.52 mmol/L
  CPK: Creatine phosphokinase: 2.94 ± 1.40 µmol/s/L
  CREA: Creatinine: 51.5 ± 9.3 µmol/L
  LDH: Lactate dehydrogenase: 3.08 ± 1.36 µmol/s/L
  TBIL: Total bilirubin: 2.34 ± 0.31 µmol/L
  TCH: Total cholesterol: 4.28 ± 0.36 mmol/L
  TG: Triglycerides: 0.43 ± 0.11 mmol/L
dogs, 5 mg/kg/day oral, d14
  ALP: Alkaline phosphatase: 1.45 ± 0.35 µmol/s/L
  ALT: Alanine aminotransferase: 521 ± 116 nmol/s/L
  AST: Aspartate aminotransferase: 442 ± 105 nmol/s/L
  BU: Blood urea: 4.10 ± 0.90 mmol/L
  CPK: Creatine phosphokinase: 2.63 ± 1.36 µmol/s/L
  CREA: Creatinine: 51.0 ± 9.9 µmol/L
  LDH: Lactate dehydrogenase: 2.27 ± 1.24 µmol/s/L
  TBIL: Total bilirubin: 2.01 ± 0.41 µmol/L
  TCH: Total cholesterol: 3.98 ± 0.64 mmol/L
  TG: Triglycerides: 0.39 ± 0.08 mmol/L
dogs, 5 mg/kg/day oral, d28
  ALP: Alkaline phosphatase: 1.51 ± 0.29 µmol/s/L
  ALT: Alanine aminotransferase: 593 ± 105 nmol/s/L
  AST: Aspartate aminotransferase: 424 ± 109 nmol/s/L
  BU: Blood urea: 3.82 ± 0.51 mmol/L
  CPK: Creatine phosphokinase: 2.43 ± 0.19 µmol/s/L
  CREA: Creatinine: 51.4 ± 10.9 µmol/L
  LDH: Lactate dehydrogenase: 2.71 ± 1.12 µmol/s/L
  TBIL: Total bilirubin: 2.08 ± 0.52 µmol/L
  TCH: Total cholesterol: 4.24 ± 0.56 mmol/L
  TG: Triglycerides: 0.35 ± 0.11 mmol/L
[6]
  ALP: Alkaline phosphatase: 1.45 ± 0.37 µmol/s/L
  ALT: Alanine aminotransferase: 558 ± 90 nmol/s/L
  AST: Aspartate aminotransferase: 451 ± 79 nmol/s/L
  BU: Blood urea: 4.83 ± 0.20 mmol/L
  CPK: Creatine phosphokinase: 2.97 ± 0.18 µmol/s/L
  CREA: Creatinine: 55.6 ± 4.5 µmol/L
  LDH: Lactate dehydrogenase: 2.21 ± 1.32 µmol/s/L
  TBIL: Total bilirubin: 2.01 ± 0.33 µmol/L
  TCH: Total cholesterol: 3.99 ± 0.41 mmol/L
  TG: Triglycerides: 0.31 ± 0.09 mmol/L
[7]
  ALP: Alkaline phosphatase: 1.48 ± 0.48 µmol/s/L
  ALT: Alanine aminotransferase: 535 ± 92 nmol/s/L
  AST: Aspartate aminotransferase: 456 ± 92 nmol/s/L
  BU: Blood urea: 4.35 ± 0.98 mmol/L
  CPK: Creatine phosphokinase: 2.98 ± 0.64 µmol/s/L
  CREA: Creatinine: 51.6 ± 7.5 µmol/L
  LDH: Lactate dehydrogenase: 2.85 ± 0.86 µmol/s/L
  TBIL: Total bilirubin: 2.55 ± 0.28 µmol/L
  TCH: Total cholesterol: 4.31 ± 0.36 mmol/L
  TG: Triglycerides: 0.42 ± 0.09 mmol/L
dogs, 20 mg/kg/day oral, d14
  ALP: Alkaline phosphatase: 0.85 ± 0.25 µmol/s/L
  ALT: Alanine aminotransferase: 425 ± 105 nmol/s/L
  AST: Aspartate aminotransferase: 384 ± 56 nmol/s/L
  BU: Blood urea: 4.52 ± 1.05 mmol/L
  CPK: Creatine phosphokinase: 2.43 ± 0.48 µmol/s/L
  CREA: Creatinine: 58.6 ± 10.6 µmol/L
  LDH: Lactate dehydrogenase: 1.23 ± 0.45 µmol/s/L
  TBIL: Total bilirubin: 1.85 ± 0.16 µmol/L
  TCH: Total cholesterol: 3.16 ± 0.34 mmol/L
  TG: Triglycerides: 0.29 ± 0.08 mmol/L
